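Grown in 96-well plates, cells were treated for 48 hours with each compound at five concentrations. Insufficient inhibition: endpoint recorded as highest concentration tested. GI50: concentration for 50% inhibition of growth.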 Activity calls are given as the source filed them. Rule as the data show it: active = GI50 up to about 1.1 µM and inactive = higher.
Legend:
Assay in all cases: DTP human tumour cell line panel, 48 h
[1] = test system: COLO 205
[2] = test system: EKVX
[3] = test system: HOP-92
[4] = test system: HT-29
[5] = test system: Hs-578T
[6] = test system: LOX IMVI
[7] = test system: M14
[8] = test system: MCF7
[9] = test system: MDA-MB-435
[10] = test system: MOLT-4
[11] = test system: NCI-H226
[12] = test system: NCI-H460
[13] = test system: NCI/ADR-RES
[14] = test system: RPMI-8226
[15] = test system: SF-295
[16] = test system: SK-MEL-28
[17] = test system: SNB-19
[18] = test system: SNB-75
[19] = test system: T47D
[20] = test system: Malme-3M

SMILES | GI50 [1] | GI50 [2] | GI50 [3] | GI50 [4] | GI50 [5] | GI50 [6] | GI50 [7] | GI50 [8] | GI50 [9] | GI50 [10] | GI50 [11] | GI50 [12] | GI50 [13] | GI50 [14] | GI50 [15] | GI50 [16] | GI50 [17] | GI50 [18] | GI50 [19] | GI50 [20]
Nc1nncc2[nH]cnc12 | 24.2 µM (inactive) | 52.1 µM (inactive) | > 100 µM (inactive) | 39.4 µM (inactive) | > 78.7 µM (inactive) | 25.5 µM (inactive) | 35.2 µM (inactive) | 23.4 µM (inactive) | > 74.3 µM (inactive) | 10.1 µM (inactive) | > 100 µM (inactive) | 90.6 µM (inactive) | 94 µM (inactive) | 14.4 µM (inactive) | 42.8 µM (inactive) | > 100 µM (inactive) | > 100 µM (inactive) | > 56.9 µM (inactive) | > 75.9 µM (inactive) | –
COc1cc(/C=C2\C(=O)N(c3ccccc3Cl)C(c3ccccc3)S2(=O)=O)cc(OC)c1OC (stereo unspecified) | 36.4 µM (inactive) | 41.4 µM (inactive) | 41.3 µM (inactive) | 16.3 µM (inactive) | 46.5 µM (inactive) | 21.7 µM (inactive) | 31.9 µM (inactive) | 25.6 µM (inactive) | 33.3 µM (inactive) | 15.3 µM (inactive) | 42 µM (inactive) | 52.2 µM (inactive) | 29.6 µM (inactive) | 17.2 µM (inactive) | 34 µM (inactive) | 39 µM (inactive) | 34.7 µM (inactive) | – | 32.8 µM (inactive) | 28.7 µM (inactive)
Cc1[nH]c2ccccc2c1/C=N/NC(=O)c1cccc(I)c1 | 13.5 µM (inactive) | 12.2 µM (inactive) | 14.4 µM (inactive) | 15.7 µM (inactive) | 33.1 µM (inactive) | 15.7 µM (inactive) | 15 µM (inactive) | 19.5 µM (inactive) | 17.3 µM (inactive) | 23.3 µM (inactive) | – | 17.1 µM (inactive) | 20.3 µM (inactive) | 19.9 µM (inactive) | 18.7 µM (inactive) | 22.7 µM (inactive) | 29 µM (inactive) | 22.4 µM (inactive) | 14.8 µM (inactive) | 24.2 µM (inactive)
Clc1ccc(/N=C2\c3ccccc3CN2c2ccc(Cl)cc2)cc1 | 1.58 µM (inactive) | > 100 µM (inactive) | 39.9 µM (inactive) | 19 µM (inactive) | > 100 µM (inactive) | > 100 µM (inactive) | 31.7 µM (inactive) | 5.2 µM (inactive) | > 100 µM (inactive) | > 100 µM (inactive) | > 100 µM (inactive) | 62.8 µM (inactive) | > 100 µM (inactive) | 7.69 µM (inactive) | 10.4 µM (inactive) | 64 µM (inactive) | > 100 µM (inactive) | 63.8 µM (inactive) | 0.219 µM (active) | –
